We go through two molecules from ChEMBL document CHEMBL1909622, “Identification of a novel RAMP-independent CGRP receptor antagonist” (Bioorg Med Chem Lett, 2011).

Each structure is given as a SMILES string.

The nature of series [1]: Half life in dog at 0.5 mg/kg, iv. In kind it is ADME, organism-based, Canis lupus familiaris. Also noted: dose 0.5 mg/kg, route intravenous. The settings on record: in vivo.
The nature of series [2]: Clearance in rat at 2 mg/kg, iv and 10 mg/kg, po. The series is classed as ADME, organism-based. The settings on record: in vivo.
Series [3] is described as follows: Clearance in dog at 0.5 mg/kg, iv and 1 mg/kg, po. The series is classed as ADME, organism-based, Canis lupus familiaris. The settings on record: in vivo.
Series [4] can be described thus: Oral bioavailability in rat at 10 mg/kg. In kind it is ADME, organism-based. The settings on record: in vivo.
Series [5] is described as follows: Volume of distribution at steady state in dog at 0.5 mg/kg, iv and 1 mg/kg, po. The settings on record: in vivo, read-out: Vdss. The series is classed as ADME, organism-based, Canis lupus familiaris.
Series [6] in a line: Volume of distribution at steady state in rat at 2 mg/kg, iv and 10 mg/kg, po. The series is classed as ADME, organism-based. The settings on record: in vivo, read-out: Vdss.
Series [7] can be described thus: Oral bioavailability in dog at 1 mg/kg. The series is classed as ADME, organism-based, Canis lupus familiaris. The settings on record: in vivo.
Series [8] in a line: Half life in rat at 2 mg/kg, iv. The series is classed as ADME, organism-based. Also noted: dose 2 mg/kg, route intravenous. The settings on record: in vivo.
In series [9] the test system is CGRP receptor (CALCRL/RAMP1) (Homo sapiens). The series is described as follows: Ratio Ki for CGRP receptor in human SK-N-MC cells in the absence of MgCl2 to Ki for CGRP receptor in human SK-N-MC cells in the presence of MgCl2.

By half-life is commonly meant the time in which the quantity being followed falls by half. As a reminder, the bioavailability is the share of a dose that reaches the circulation, judged against a reference dose that is usually intravenous. Consider `O=C(NCc1cc(F)cc(F)c1)c1nc(N2CCCCS2(=O)=O)cc(Br)c1O`, for which the half-life in series [1] was 7.1 h; in [8] it was 5.4 h. The results for the clearance in series [2] and in series [3] were 1.1 mL/min/kg and 5.1 mL/min/kg, respectively. Also, the bioavailability was 26% in [4] and 13% in [7]. Further, the Vd amounted to 3 L/kg in series [5] and 0.4 L/kg in [6].
For the molecule `CC(C)C[C@H](NC(=O)CNC(=O)[C@H](C)NC(=O)[C@H](CC(C)C)NC(=O)[C@H](CCCNC(=N)N)NC(=O)[C@H](Cc1cnc[nH]1)NC(=O)[C@@H](NC(=O)[C@@H](NC(=O)[C@H](CS)NC(=O)[C@@H](NC(=O)[C@H](C)NC(=O)[C@@H](NC(=O)[C@H](CC(=O)O)NC(=O)[C@H](CS)NC(=O)[C@H](C)N)[C@@H](C)O)[C@@H](C)O)C(C)C)[C@@H](C)O)C(=O)N[C@@H](CC(C)C)C(=O)N[C@@H](CO)C(=O)N[C@@H](CCCNC(=N)N)C(=O)N[C@@H](CO)C(=O)NCC(=O)NCC(=O)N[C@H](C(=O)N[C@H](C(=O)N[C@@H](CCCCN)C(=O)N[C@@H](CC(N)=O)C(=O)N[C@@H](CC(N)=O)C(=O)N[C@@H](Cc1ccccc1)C(=O)N[C@H](C(=O)N1CCC[C@H]1C(=O)N[C@H](C(=O)N[C@@H](CC(N)=O)C(=O)N[C@H](C(=O)NCC(=O)N[C@@H](CO)C(=O)N[C@@H](CCCCN)C(=O)N[C@@H](C)C(=O)N[C@@H](Cc1ccccc1)C(N)=O)C(C)C)[C@@H](C)O)C(C)C)C(C)C)C(C)C`, the Ratio Ki in series [9] is 1.
